Target: mutant sarcosine oxidase from E. coli JM109 (pSO12 EH), FERM BP-6597; mutant of Bacillus sp. NS-129 sarcosine oxidase (wild type SEQ ID NO: 1) (Bacillus sp. NS-129, UniProt P23342)
Test: Km determination by sarcosine oxidase enzyme assay (formaldehyde/acetyl-acetone colour), Lineweaver-Burk plot
Assay type: biochemical
Conditions: read-out: Km value (for sarcosine), phosphate buffer pH7.7, 37° C., 10 minutes
Experimental: 0.25M phosphate buffer (0.1 ml, pH7.7), 0.2 M sarcosine solution (0.3 ml) and the enzyme solution with an appropriate concentration (0.1 ml) were mixed and reacted at 37° C. for 10 minutes. Then, 1.0 N acetic acid solution (0.5 ml) was added to the mixture to stop the reaction. To the mixture was added 3 ml of acetyl-acetone color-developing solution (acetyl-acetone, 0.2%(v/v) and diammonium hydrogenphosphate, 10%(w/v) ) (pH6.5) to develop the color at 37° C. for 40 minutes. The absorbance was determined at 410 nm by spectrophotometer. Then, the yield of the enzyme was estimated from the calibration curve of formaldehyde prepared beforehand. The amount of the enzyme which produces 1 μmole of formaldehyde per minute at 37° C. was defined as 1 unit.
The Km value of the enzyme was determined using the assay as described above.

CNCC(=O)O [sarcosine]
Km: ~3.5 mM

Source: US6228626A, “Sarcosine oxidase and process for producing the same” (priority 1998, dated 2001)
